The text below walks through data of ChEMBL document CHEMBL1201862, “PubChem BioAssay data set” (2004).

Test systems include SNB-19; DU-145; NCI-H460; NCI-H23; SN12C; MCF7; ACHN; HCT-15; OVCAR-5; OVCAR-4; UACC-62; SF-268; K562; SF-539; SK-OV-3; UACC-257; M14; Hs-578T; SR; MDA-MB-435.
Common to all, as to assay: inhibition of tumour cell growth, NCI panel, 48 h

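Exposure lasted 48 hours, with cells grown in 96-well plates and compounds tested at five concentrations. GI50 = concentration required for 50% inhibition of growth.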 Calls of active or inactive are those of the source. Rule as the data show it: active = GI50 up to about 1.1 µM and inactive = higher.

Consider `NS(=O)(=O)c1nnc(NC(=O)/C=C/C(=O)O)s1`, for which the GI50 in the assay on SNB-19, in the assay on DU-145, in the assay on NCI-H460, in the assay with NCI-H23, in the assay on SN12C and in the assay on MCF7 was > 100 µM (inactive) each time. Besides, the GI50 in the assay on ACHN is > 100 µM (inactive); with HCT-15, greater than 100 µM; with OVCAR-5 it was > 100 µM (inactive); in the assay with OVCAR-4, > 100 µM (inactive); in the assay on UACC-62 it was > 100 µM (inactive); in the assay on SF-268 it was > 100 µM (inactive). The GI50 in the assay with K562, with SF-539, in the assay on SK-OV-3, in the assay with UACC-257, in the assay on M14 and in the assay on Hs-578T was > 100 µM (inactive) throughout. For the same compound, the GI50 in the assay with SR and with MDA-MB-435 was > 100 µM (inactive) throughout.
With `O=C(Nc1ccc(Cl)cc1Cl)C1C(=O)OC2(CCCCC2)OC1=O`, the GI50 in the assay with SNB-19 was 5.26 µM (inactive); in the assay on DU-145 it was 10.5 µM (inactive); with NCI-H460 it was 8.99 µM (inactive); in the assay on NCI-H23, 4.4 µM (inactive); in the assay on SN12C it was 14.7 µM (inactive); in the assay on MCF7, 7.29 µM (inactive). Further, the GI50 with ACHN was 6.07 µM (inactive); in the assay on HCT-15, 14.6 µM; in the assay on OVCAR-5 it was 9.12 µM (inactive); in the assay on OVCAR-4 it was 9.18 µM (inactive); with UACC-62, 11 µM (inactive); with SF-268, 14.6 µM (inactive). The GI50 was 4.72 µM (inactive) with K562; 9.66 µM (inactive) with SF-539; 10.6 µM (inactive) in the assay with SK-OV-3; 12.1 µM (inactive) in the assay on UACC-257; 8.77 µM (inactive) with M14; 10.8 µM (inactive) in the assay on Hs-578T. The GI50 was 5.97 µM (inactive) in the assay with SR and 8.2 µM (inactive) in the assay with MDA-MB-435.
Consider `O[C@H]1[C@@H]2OC[C@@H](O)[C@H](OCc3ccccc3)[C@@](COCc3ccccc3)(O2)[C@@H]1OCc1ccccc1`, for which the GI50 with SNB-19 is 16.4 µM (inactive); in the assay on DU-145, 18.5 µM (inactive); with NCI-H460, 20.3 µM (inactive); with NCI-H23, 17.1 µM (inactive); in the assay with SN12C, 14.7 µM (inactive); in the assay on MCF7, 19.3 µM (inactive). For the same compound, the GI50 was 16.7 µM (inactive) with ACHN; 16.4 µM in the assay with HCT-15; 15.1 µM (inactive) with OVCAR-5; 12 µM (inactive) in the assay with OVCAR-4; 11.4 µM (inactive) with UACC-62; 22.2 µM (inactive) with SF-268. The GI50 in the assay on K562 is 25.4 µM (inactive); in the assay with SF-539, 15.5 µM (inactive); in the assay with SK-OV-3, 21.6 µM (inactive); in the assay on UACC-257 it was 14.8 µM (inactive); in the assay on M14, 17.3 µM (inactive); in the assay with Hs-578T, 14.7 µM (inactive). Besides, the GI50 is 38.5 µM (inactive) in the assay with SR and 17.3 µM (inactive) in the assay with MDA-MB-435.
On to `O=C1Nc2ccccc2/C1=C1/Nc2ccccc2/C1=N\OCCOC1OCC(O)C(O)C1O` (stereo not given), for which the GI50 with SNB-19 is > 100 µM (inactive); in the assay with DU-145 it was > 100 µM (inactive); in the assay with NCI-H460, > 100 µM (inactive); in the assay on NCI-H23, > 100 µM (inactive); in the assay with SN12C, > 100 µM (inactive); in the assay on MCF7, 53.2 µM (inactive). Besides, the GI50 with ACHN is > 100 µM (inactive); in the assay on HCT-15 it was greater than 100 µM; with OVCAR-5, > 100 µM (inactive); in the assay on OVCAR-4, > 100 µM (inactive); with UACC-62, 95.1 µM (inactive); in the assay with SF-268 it was > 100 µM (inactive). Also, the GI50 with K562 was > 100 µM (inactive); with SF-539 it was > 100 µM (inactive); in the assay with SK-OV-3 it was 1.68 µM (inactive); with UACC-257 it was > 100 µM (inactive); with M14, 43.4 µM (inactive); in the assay on Hs-578T it was > 100 µM (inactive). Further, the GI50 with SR is 33 µM (inactive); in the assay on MDA-MB-435, > 100 µM (inactive).
For the compound `CN(C)CCCN1C(=S)N(CCCN(C)C)c2c3cc(O)ccc3nc3c([N+](=O)[O-])ccc1c23`, the GI50 in the assay with SNB-19 is 2.06 µM (inactive); in the assay on DU-145, 2.47 µM (inactive); with NCI-H460 it was 0.34 µM (active); in the assay with NCI-H23 it was 3.41 µM (inactive); in the assay with SN12C, 2.65 µM (inactive); with MCF7, 0.902 µM (active). In addition, the GI50 was 0.703 µM (active) with ACHN; 1.87 µM in the assay with HCT-15; 11.8 µM (inactive) with OVCAR-5; 2.61 µM (inactive) in the assay on OVCAR-4; 5.13 µM (inactive) in the assay on UACC-62; 1.53 µM (inactive) in the assay with SF-268. The GI50 in the assay on K562 is 2.14 µM (inactive); with SF-539, 1.29 µM (inactive); in the assay on SK-OV-3, 4.11 µM (inactive); in the assay with UACC-257, 5.45 µM (inactive); with M14, 7.05 µM (inactive); in the assay on Hs-578T, 5.61 µM (inactive). For the same compound, the values for the GI50 in the assay on SR and with MDA-MB-435 were 0.278 µM (active) and 4.2 µM (inactive), respectively.
On to `O=Cc1ccc(OC[C@H]2COC(=O)N2)cc1`, for which the GI50 in the assay with SNB-19, in the assay on DU-145, in the assay with NCI-H460, with NCI-H23, with SN12C and with MCF7 was > 100 µM (inactive) in each case. Besides, the GI50 with ACHN is > 100 µM (inactive); in the assay on HCT-15, greater than 100 µM; in the assay with OVCAR-5, > 100 µM (inactive); in the assay with OVCAR-4, > 100 µM (inactive); in the assay with UACC-62, > 100 µM (inactive); in the assay on SF-268, > 100 µM (inactive). Further, the GI50 with K562, with SF-539, in the assay on SK-OV-3, in the assay with UACC-257, in the assay with M14 and in the assay with Hs-578T was > 100 µM (inactive) in each case. The GI50 in the assay on SR and in the assay on MDA-MB-435 was > 100 µM (inactive) in each case.
For `CCCCCCCCOC(=O)c1cc([N+](=O)[O-])c(Sc2[nH]cnc3ncnc2-3)c([N+](=O)[O-])c1`, the GI50 in the assay on SNB-19 is 18.1 µM (inactive); with DU-145, 1.27 µM (inactive); in the assay on NCI-H460 it was 3.4 µM (inactive); in the assay on NCI-H23, 2.45 µM (inactive); in the assay on SN12C, 2.33 µM (inactive); in the assay with MCF7, 1.59 µM (inactive). Moreover, the GI50 in the assay with ACHN was 2.92 µM (inactive); with HCT-15, 2.23 µM; in the assay on OVCAR-5, 3.15 µM (inactive); in the assay on OVCAR-4 it was 3.49 µM (inactive); in the assay on UACC-62, 2.9 µM (inactive); in the assay on SF-268, 2.38 µM (inactive). The GI50 in the assay on K562 was 0.366 µM (active); with SF-539, 2 µM (inactive); with SK-OV-3, 0.695 µM (active); in the assay on UACC-257 it was 5.62 µM (inactive); in the assay on M14, 0.56 µM (active); in the assay on Hs-578T, 5.33 µM (inactive). Moreover, the GI50 with SR was 1.1 µM (active); with MDA-MB-435, 2.06 µM (inactive).
Turning to `COc1cc(C2OC[C@@H]3C(=O)OC[C@H]23)cc(O)c1OC` (stereo not given in full), the GI50 with SNB-19, in the assay with DU-145, in the assay on NCI-H460, in the assay on NCI-H23, in the assay with SN12C and in the assay with MCF7 was > 100 µM (inactive) in each case. Also, the GI50 in the assay on ACHN is > 100 µM (inactive); in the assay on HCT-15, greater than 100 µM; in the assay with OVCAR-5, > 100 µM (inactive); in the assay with OVCAR-4, > 100 µM (inactive); with UACC-62 it was > 100 µM (inactive); with SF-268 it was > 100 µM (inactive). The GI50 in the assay with K562, in the assay with SF-539, in the assay with SK-OV-3, in the assay with UACC-257, with M14 and with Hs-578T was > 100 µM (inactive) in each case. Moreover, the GI50 in the assay with SR and in the assay on MDA-MB-435 was > 100 µM (inactive) throughout.
Take `O=C1NCN(c2ccccc2)C12CCN(CCCN1CCN(CCOC(c3ccccc3)c3ccccc3)CC1)CC2`: the GI50 is 3.94 µM (inactive) with SNB-19; 3.59 µM (inactive) in the assay with DU-145; 3.84 µM (inactive) in the assay with NCI-H460; 3.94 µM (inactive) with NCI-H23; 3.82 µM (inactive) with SN12C; 3.11 µM (inactive) with MCF7. Also, the GI50 is 2.5 µM (inactive) in the assay on ACHN; 1.86 µM with HCT-15; 5.08 µM (inactive) with OVCAR-5; 3.53 µM (inactive) in the assay with OVCAR-4; 4.27 µM (inactive) in the assay with UACC-62; 2.4 µM (inactive) in the assay with SF-268. The GI50 in the assay with K562 was 0.447 µM (active); in the assay with SF-539, 1.25 µM (inactive); with SK-OV-3, 3.75 µM (inactive); in the assay with UACC-257, 1.47 µM (inactive); in the assay on M14 it was 1.08 µM (active); in the assay on Hs-578T, 3.48 µM (inactive). In addition, the GI50 with SR was 0.561 µM (active); in the assay on MDA-MB-435, 0.923 µM (active).
`CC(CS(=O)(=O)Cc1ccccc1)C(N)=O` (stereo not given): the GI50 in the assay on SNB-19, with DU-145, with NCI-H460, in the assay with NCI-H23, in the assay with SN12C and in the assay with MCF7 was > 100 µM (inactive) throughout. The GI50 with ACHN is > 100 µM (inactive); in the assay with HCT-15, greater than 100 µM; in the assay with OVCAR-5, > 100 µM (inactive); in the assay on OVCAR-4 it was > 100 µM (inactive); in the assay with UACC-62, > 100 µM (inactive); in the assay on SF-268, > 100 µM (inactive). In addition, the GI50 with K562, in the assay on SF-539, in the assay on SK-OV-3, with UACC-257, in the assay on M14 and in the assay on Hs-578T was > 100 µM (inactive) each time. Also, the GI50 with SR and in the assay on MDA-MB-435 was > 100 µM (inactive) each time.
